Experimental data from patent US9624155B2, “Iron (III) citrate, substantially free of beta-iron hydroxide oxide” (Japan Tobacco Inc., priority 2011, dated 2017).

Experiment: Specific surface area by nitrogen gas adsorption (BET)
Format: physicochemical
Conditions: relative pressure 0.05 to 0.3 (BET surface area)
Method: A specific surface area can be measured by, for example, but is not limited to, BET surface area measurement via nitrogen gas adsorption (relative pressure: 0.05 to 0.3).
Specific surface areas of iron(III) citrates of Comparative Examples 11 and 12 and Examples 1, 4, 5, 6, 7, and 10 to 23 were measured by nitrogen gas adsorption (relative pressure: 0.05 to 0.3) (BET surface area).
With `O=C([O-])CC(O)(CC(=O)[O-])C(=O)[O-].[Fe+3]` [Example 6, Iron(III) citrate] the Specific surface area was 30.4 m^2/g.
For `O=C([O-])CC(O)(CC(=O)[O-])C(=O)[O-].[Fe+3]` [Example 4, iron(III) citrate], the Specific surface area was 33.4 m^2/g.
`O=C([O-])CC(O)(CC(=O)[O-])C(=O)[O-].[Fe+3]` [Example 18, Iron(III) citrate] gave a Specific surface area of 39.9 m^2/g.
In the case of `O=C([O-])CC(O)(CC(=O)[O-])C(=O)[O-].[Fe+3]` [Comparative Example 11, iron(III) citrate], the Specific surface area is reported as 0.80 m^2/g.
For `O=C([O-])CC(O)(CC(=O)[O-])C(=O)[O-].[Fe+3]` [Example 23, Iron(III) citrate], the Specific surface area was 32.8 m^2/g.
In the case of `O=C([O-])CC(O)(CC(=O)[O-])C(=O)[O-].[Fe+3]` [Example 21, Iron(III) citrate], the Specific surface area is reported as 35.5 m^2/g.
With `O=C([O-])CC(O)(CC(=O)[O-])C(=O)[O-].[Fe+3]` [Example 20, Iron(III) citrate] the Specific surface area was 33.8 m^2/g.
With `O=C([O-])CC(O)(CC(=O)[O-])C(=O)[O-].[Fe+3]` [Example 11, Iron(III) citrate] the Specific surface area was 30.0 m^2/g.
`O=C([O-])CC(O)(CC(=O)[O-])C(=O)[O-].[Fe+3]` [Example 1, iron(III) citrate] showed a Specific surface area of 21.8 m^2/g.
With `O=C([O-])CC(O)(CC(=O)[O-])C(=O)[O-].[Fe+3]` [Example 22, Iron(III) citrate] the Specific surface area was 32.6 m^2/g.
Molecule `O=C([O-])CC(O)(CC(=O)[O-])C(=O)[O-].[Fe+3]` [Comparative Example 12, iron(III) citrate] has a Specific surface area of 0.62 m^2/g.
`O=C([O-])CC(O)(CC(=O)[O-])C(=O)[O-].[Fe+3]` [Example 13, Iron(III) citrate] showed a Specific surface area of 29.1 m^2/g.
Molecule `O=C([O-])CC(O)(CC(=O)[O-])C(=O)[O-].[Fe+3]` [Example 5, Iron(III) citrate] has a Specific surface area of 31.0 m^2/g.
`O=C([O-])CC(O)(CC(=O)[O-])C(=O)[O-].[Fe+3]` [Example 10, Iron(III) citrate] showed a Specific surface area of 29.9 m^2/g.
In the case of `O=C([O-])CC(O)(CC(=O)[O-])C(=O)[O-].[Fe+3]` [Example 12, Iron(III) citrate], the Specific surface area is reported as 30.3 m^2/g.
For `O=C([O-])CC(O)(CC(=O)[O-])C(=O)[O-].[Fe+3]` [Example 17, Iron(III) citrate], the Specific surface area was 32.4 m^2/g.
`O=C([O-])CC(O)(CC(=O)[O-])C(=O)[O-].[Fe+3]` [Example 7, Iron(III) citrate] showed a Specific surface area of 29.8 m^2/g.
In the case of `O=C([O-])CC(O)(CC(=O)[O-])C(=O)[O-].[Fe+3]` [Example 15, Iron(III) citrate], the Specific surface area is reported as 38.5 m^2/g.
With `O=C([O-])CC(O)(CC(=O)[O-])C(=O)[O-].[Fe+3]` [Example 16, Iron(III) citrate] the Specific surface area was 33.7 m^2/g.
With `O=C([O-])CC(O)(CC(=O)[O-])C(=O)[O-].[Fe+3]` [Example 14, Iron(III) citrate] the Specific surface area was 37.9 m^2/g.
`O=C([O-])CC(O)(CC(=O)[O-])C(=O)[O-].[Fe+3]` [Example 19, Iron(III) citrate] gave a Specific surface area of 39.8 m^2/g.
